Laboratory results: patent publication US20090018111A1, “Novel Antimicrobial Medicament” (priority 2004, published 2009)
Read-outs that look alike come from different tables or passages of the source.

Assays:
Assay in all cases: Sensitivity test (agar dilution)
B. subtilis ATCC6633 = assay type: cell-based, Bacillus subtilis; conditions: Bacillus subtilis
Procedure: (§1) The antibacterial activities were tested against various 18 bacteria (27 standard strains) which are representative bacteria caused clinically infectious disease (Staphylococcus aureus 3 strains, Staphylococcus epidermidis 1 strain, Micrococcus luteus 1 strain, Streptococcus pyogenes 1 strain, Enterococcus faecalis 1 strain, Enterococcus faecium 1 strain, Bacillus subtilis 1 strain, Escherichia coli 3 strains, Klebsiella pneumoniae 1 strain, Proteus mirabilis 1 strain, Proteus vulgaris 2 strains, Pseudomonas aeruginosa 3 strains, Serratia marcescens 2 strains, Enterobacter aerogenes 1 strain, Stenotrophomonas maltophilia 1 strain, Enterobacter cloacae 1 strain, Citrobacter freundii 1 strain, Moraxella catarrhalis 2 strains).
(§2) According to the standard method of Japan Chemotherapeutic Society (Chemotherapy, vol. […], p 76-79 (1981)) the test was carried out using the agar dilution method. After dissolving test samples in distilled water, agar medium containing the test samples was prepared in such a manner that the final concentration became twice serial dilution by pouring serially diluted combination drug solution or a single drug solution into agar medium. As agar medium was used Mueller Hinton Agar medium (MHA). Then, each strain was cultivated over night at 37° C. in an incubator and suspended in buffered saline solution with gelatin (BSG) in the concentration of about 10^6 CFU/ml. The suspension (about 5 μl) containing test strains was inoculated to the medium containing the test samples by Micro Planter.
(§3) When the sample is subjected to sensitivity test, this mixed solution was diluted by twice serial dilution method.
(§4) Furthermore, when the drug is solely used, each test sample was used as it is, and diluted by twice serial dilution method from the maximum concentration to the minimum concentration.
(§5) FIC index based on MIC value was calculated. […] Namely, when FIC index calculated by the following formula is equal or less than 1, the enhanced effect of the combination drug in said ratio is considered as positive. When FIC index is over 1, the enhanced effect of the combination drug in said ratio is considered as negative.
(§6) Formula of FIC index: FIC index=(MIC of Drug A in combination/MIC of Drug A alone)+(MIC of Drug B in combination/MIC of Drug B alone) N.C. in tables means being not calculated.

P. mirabiris GN2425 = assay type: cell-based, Proteus mirabilis; conditions: Proteus mirabilis
Procedure: as §1, §2, §3, §4, §5, §6

M. catarrhalis ATCC8176 = assay type: cell-based, Moraxella catarrhalis; conditions: Moraxella catarrhalis
Procedure: as §1, §2, §3, §4, §5, §6

M. catarrhalis ATCC25238 = assay type: cell-based, Moraxella catarrhalis; conditions: Moraxella catarrhalis
Procedure: as §1, §2, §3, §4, §5, §6

C[C@H]1C=C(c2csc(SC3=C(C(=O)O)N4C(=O)[C@H]([C@@H](C)O)[C@H]4[C@H]3C)n2)CN1 [SM, (4R,5S,6S)-6-[(1R)-1-Hydroxyethyl]-4-methyl-3-({4-[(5S)-5-methyl-2,5-dihydro-1H-pyrrol-3-yl]-1,3-thiazol-2-yl}sulfanyl)-7-oxo-1-azabicyclo[3.2.0]hept-2-ene-2-carboxylic acid] was tested, and the MIC (B. subtilis ATCC6633; ATCC6633, Concomitant (CAZ:SM = 1:1), B. subtilis ATCC6633, read-out: MIC concomitant) was ≤ 0.002 µg/mL, the MIC (B. subtilis ATCC6633; ATCC6633, Concomitant (CPFX:SM = 1:1), B. subtilis ATCC6633, read-out: MIC concomitant) was 0.004 µg/mL and the MIC (B. subtilis ATCC6633; ATCC6633, Concomitant (DRPM:SM = 1:1), B. subtilis ATCC6633, read-out: MIC concomitant) was ≤ 0.002 µg/mL. For the same molecule, the MIC (B. subtilis ATCC6633; ATCC6633, Concomitant (IPM:SM = 1:1), read-out: MIC) was ≤ 0.002 µg/mL, the MIC (B. subtilis ATCC6633; ATCC6633, Concomitant (MEPM:SM = 1:1), read-out: MIC) was ≤ 0.016 µg/mL and the MIC (B. subtilis ATCC6633; ATCC6633, Concomitant (MEPM:SM = 1:2), read-out: MIC) was ≤ 0.031 µg/mL. The MIC (B. subtilis ATCC6633; ATCC6633, Concomitant (MEPM:SM = 1:4), read-out: MIC) was ≤ 0.063 µg/mL, the MIC (B. subtilis ATCC6633; ATCC6633, Concomitant (PAPM:SM = 1:1), B. subtilis ATCC6633, read-out: MIC concomitant) was ≤ 0.002 µg/mL and the MIC (B. subtilis ATCC6633; ATCC6633, Concomitant (PIPC:SM = 1:1), B. subtilis ATCC6633, read-out: MIC concomitant) was ≤ 0.002 µg/mL. For the same molecule, the MIC (B. subtilis ATCC6633; ATCC6633, Concomitant drug (MEPM:SM = 2:1), read-out: MIC) was ≤ 0.008 µg/mL, the MIC (B. subtilis ATCC6633; ATCC6633, alone, read-out: MIC) was ≤ 0.008 µg/mL and the MIC (B. subtilis ATCC6633; ATCC6633, drug alone, B. subtilis ATCC6633, read-out: MIC alone) was 0.004 µg/mL. For the same molecule, the MIC (P. mirabiris GN2425; GN2425, Concomitant (IPM:SM = 1:1)) was 0.25 µg/mL, the MIC (P. mirabiris GN2425; GN2425, Concomitant (MEPM:SM = 1:1)) was ≤ 0.016 µg/mL and the MIC (P. mirabiris GN2425; GN2425, Concomitant (MEPM:SM = 1:2)) was 0.063 µg/mL. For the same molecule, the MIC (P. mirabiris GN2425; GN2425, Concomitant (MEPM:SM = 1:4)) was ≤ 0.063 µg/mL, the MIC (P. mirabiris GN2425; GN2425, Concomitant drug (MEPM:SM = 2:1)) was 0.016 µg/mL and the MIC (P. mirabiris GN2425; GN2425, alone) was 0.125 µg/mL. The MIC (P. mirabiris GN2425; GN2425, read-out: MIC alone, drug alone, P. mirabiris GN2425) was 0.125 µg/mL, the MIC (P. mirabiris GN2425; GN2425, read-out: MIC concomitant, Concomitant (AZT:SM = 1:1), P. mirabiris GN2425) was 0.004 µg/mL and the MIC (P. mirabiris GN2425; GN2425, read-out: MIC concomitant, Concomitant (BIPM:SM = 1:1), P. mirabiris GN2425) was 0.125 µg/mL. It also gave an MIC (P. mirabiris GN2425; GN2425, read-out: MIC concomitant, Concomitant (CAZ:SM = 1:1), P. mirabiris GN2425) of 0.031 µg/mL, an MIC (P. mirabiris GN2425; GN2425, read-out: MIC concomitant, Concomitant (CPFX:SM = 1:1), P. mirabiris GN2425) of 0.031 µg/mL and an MIC (P. mirabiris GN2425; GN2425, read-out: MIC concomitant, Concomitant (DRPM:SM = 1:1), P. mirabiris GN2425) of 0.063 µg/mL. For the same molecule, the MIC (P. mirabiris GN2425; GN2425, read-out: MIC concomitant, Concomitant (PAPM:SM = 1:1), P. mirabiris GN2425) was 0.125 µg/mL, the MIC (P. mirabiris GN2425; GN2425, read-out: MIC concomitant, Concomitant (PIPC:SM = 1:1), P. mirabiris GN2425) was 0.063 µg/mL and the MIC (M. catarrhalis ATCC8176; ATCC8176, Concomitant (AZT:SM = 1:1), M. catarrhalis ATCC8176, read-out: MIC concomitant) was ≤ 0.002 µg/mL. For the same molecule, the MIC (M. catarrhalis ATCC8176; ATCC8176, Concomitant (BIPM:SM = 1:1), M. catarrhalis ATCC8176, read-out: MIC concomitant) was ≤ 0.002 µg/mL, the MIC (M. catarrhalis ATCC8176; ATCC8176, Concomitant (CAZ:SM = 1:1), M. catarrhalis ATCC8176, read-out: MIC concomitant) was ≤ 0.002 µg/mL and the MIC (M. catarrhalis ATCC8176; ATCC8176, Concomitant (CPFX:SM = 1:1), M. catarrhalis ATCC8176, read-out: MIC concomitant) was ≤ 0.002 µg/mL. The MIC (M. catarrhalis ATCC8176; ATCC8176, Concomitant (DRPM:SM = 1:1), M. catarrhalis ATCC8176, read-out: MIC concomitant) was ≤ 0.002 µg/mL, the MIC (M. catarrhalis ATCC8176; ATCC8176, Concomitant (IPM:SM = 1:1), read-out: MIC) was ≤ 0.002 µg/mL and the MIC (M. catarrhalis ATCC8176; ATCC8176, Concomitant (MEPM:SM = 1:1), read-out: MIC) was ≤ 0.016 µg/mL. The MIC (M. catarrhalis ATCC8176; ATCC8176, Concomitant (MEPM:SM = 1:2), read-out: MIC) was ≤ 0.031 µg/mL, the MIC (M. catarrhalis ATCC8176; ATCC8176, Concomitant (MEPM:SM = 1:4), read-out: MIC) was ≤ 0.063 µg/mL and the MIC (M. catarrhalis ATCC8176; ATCC8176, Concomitant (PAPM:SM = 1:1), M. catarrhalis ATCC8176, read-out: MIC concomitant) was ≤ 0.002 µg/mL. The MIC (M. catarrhalis ATCC8176; ATCC8176, Concomitant (PIPC:SM = 1:1), M. catarrhalis ATCC8176, read-out: MIC concomitant) was ≤ 0.002 µg/mL, the MIC (M. catarrhalis ATCC8176; ATCC8176, Concomitant drug (MEPM:SM = 2:1), read-out: MIC) was ≤ 0.008 µg/mL and the MIC (M. catarrhalis ATCC8176; ATCC8176, drug alone, M. catarrhalis ATCC8176, read-out: MIC alone) was ≤ 0.002 µg/mL. For the same molecule, the MIC (M. catarrhalis ATCC25238; ATCC25238, Concomitant (AZT:SM = 1:1), M. catarrhalis ATCC25238, read-out: MIC concomitant) was ≤ 0.002 µg/mL, the MIC (M. catarrhalis ATCC25238; ATCC25238, Concomitant (BIPM:SM = 1:1), M. catarrhalis ATCC25238, read-out: MIC concomitant) was ≤ 0.002 µg/mL and the MIC (M. catarrhalis ATCC25238; ATCC25238, Concomitant (CAZ:SM = 1:1), M. catarrhalis ATCC25238, read-out: MIC concomitant) was ≤ 0.002 µg/mL. For the same molecule, the MIC (M. catarrhalis ATCC25238; ATCC25238, Concomitant (CPFX:SM = 1:1), M. catarrhalis ATCC25238, read-out: MIC concomitant) was ≤ 0.002 µg/mL, the MIC (M. catarrhalis ATCC25238; ATCC25238, Concomitant (DRPM:SM = 1:1), M. catarrhalis ATCC25238, read-out: MIC concomitant) was ≤ 0.002 µg/mL and the MIC (M. catarrhalis ATCC25238; ATCC25238, Concomitant (IPM:SM = 1:1), read-out: MIC) was ≤ 0.002 µg/mL.
